In US20190275027A1 (priority 2018, published 2019):

Molecular target: L-type channel CaV1.2 (UniProt P15381)
Sequence (P15381 whole entry, looked up): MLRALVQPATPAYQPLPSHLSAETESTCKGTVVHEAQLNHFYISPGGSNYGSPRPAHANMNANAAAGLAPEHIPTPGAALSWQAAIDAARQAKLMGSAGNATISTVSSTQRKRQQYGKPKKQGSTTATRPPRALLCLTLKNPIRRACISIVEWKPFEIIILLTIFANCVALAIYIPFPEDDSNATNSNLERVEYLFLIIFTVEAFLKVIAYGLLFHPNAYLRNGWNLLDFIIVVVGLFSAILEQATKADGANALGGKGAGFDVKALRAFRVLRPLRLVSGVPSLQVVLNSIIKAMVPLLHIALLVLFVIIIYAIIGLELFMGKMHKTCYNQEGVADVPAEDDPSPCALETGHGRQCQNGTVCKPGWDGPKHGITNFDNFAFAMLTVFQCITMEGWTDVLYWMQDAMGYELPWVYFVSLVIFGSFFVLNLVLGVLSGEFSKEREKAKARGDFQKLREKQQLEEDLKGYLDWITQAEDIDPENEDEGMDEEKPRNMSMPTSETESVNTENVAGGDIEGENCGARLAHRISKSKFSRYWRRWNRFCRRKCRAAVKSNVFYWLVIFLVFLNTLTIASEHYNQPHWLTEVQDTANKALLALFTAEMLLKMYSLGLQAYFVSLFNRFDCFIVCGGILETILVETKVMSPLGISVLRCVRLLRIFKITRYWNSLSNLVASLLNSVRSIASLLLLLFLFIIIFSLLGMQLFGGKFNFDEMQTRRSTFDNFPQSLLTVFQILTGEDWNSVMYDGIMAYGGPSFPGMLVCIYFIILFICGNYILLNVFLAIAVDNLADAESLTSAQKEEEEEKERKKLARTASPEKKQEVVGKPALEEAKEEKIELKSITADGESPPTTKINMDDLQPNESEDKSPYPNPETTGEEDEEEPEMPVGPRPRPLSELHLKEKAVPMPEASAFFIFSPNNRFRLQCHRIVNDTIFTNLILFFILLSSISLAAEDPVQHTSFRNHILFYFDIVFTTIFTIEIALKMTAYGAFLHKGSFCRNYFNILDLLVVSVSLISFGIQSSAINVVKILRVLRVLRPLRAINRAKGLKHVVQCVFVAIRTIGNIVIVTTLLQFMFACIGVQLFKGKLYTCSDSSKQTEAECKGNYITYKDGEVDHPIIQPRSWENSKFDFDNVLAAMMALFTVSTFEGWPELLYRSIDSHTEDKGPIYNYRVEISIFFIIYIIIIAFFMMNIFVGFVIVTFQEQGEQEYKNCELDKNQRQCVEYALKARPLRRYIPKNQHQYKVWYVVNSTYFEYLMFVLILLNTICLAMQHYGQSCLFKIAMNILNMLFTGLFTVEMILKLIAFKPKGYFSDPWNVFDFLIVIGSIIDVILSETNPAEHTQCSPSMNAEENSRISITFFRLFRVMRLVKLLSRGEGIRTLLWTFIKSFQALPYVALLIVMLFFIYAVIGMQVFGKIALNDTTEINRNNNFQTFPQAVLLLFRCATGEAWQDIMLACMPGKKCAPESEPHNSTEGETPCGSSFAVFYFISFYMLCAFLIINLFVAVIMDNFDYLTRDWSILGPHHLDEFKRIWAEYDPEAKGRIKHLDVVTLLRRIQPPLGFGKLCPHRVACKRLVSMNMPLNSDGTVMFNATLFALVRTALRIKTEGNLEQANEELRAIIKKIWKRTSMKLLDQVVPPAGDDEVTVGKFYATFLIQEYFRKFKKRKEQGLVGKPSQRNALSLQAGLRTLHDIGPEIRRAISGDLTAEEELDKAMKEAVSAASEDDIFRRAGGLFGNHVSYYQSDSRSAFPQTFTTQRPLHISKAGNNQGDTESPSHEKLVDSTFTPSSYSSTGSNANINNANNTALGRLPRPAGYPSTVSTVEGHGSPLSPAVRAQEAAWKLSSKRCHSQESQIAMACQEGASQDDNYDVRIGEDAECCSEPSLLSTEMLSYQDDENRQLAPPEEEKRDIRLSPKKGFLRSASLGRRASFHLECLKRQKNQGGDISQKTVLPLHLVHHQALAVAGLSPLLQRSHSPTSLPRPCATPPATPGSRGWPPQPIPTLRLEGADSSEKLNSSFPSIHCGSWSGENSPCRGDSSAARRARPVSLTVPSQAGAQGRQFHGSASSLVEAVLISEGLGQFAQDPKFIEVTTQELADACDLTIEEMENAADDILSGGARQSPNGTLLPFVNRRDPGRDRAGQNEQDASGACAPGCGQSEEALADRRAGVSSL

COc1ccc2cc1Oc1ccc(cc1)C[C@H]1c3cc(c(OC)cc3CCN1C)Oc1c(OC)c(OC)cc3c1[C@H](C2)N(C)CC3 [TETN, tetrandrine, reference compound]
L-Activity IC50: 46.80 ± 10.84 µM
